Assay [1] relates to pigweed. As to the kind of experiment: Field trial, post-emergent tank mix in field corn. The assay is classed as in vivo, Amaranthus sp. The conditions noted are these: post-emergent 35 days after seeding, weeds 41 to 89 cm, foliar broadcast tank mix, (z) 0.275 kg/ha, (a) 0.011 kg/ha, Aquagene 0.9 l/ha where named. The method, then: (§1) A field trial was conducted against velvetleaf and pigweed in field corn. Application was post-emergent 35 days after seeding with weeds at a height of 41 to 89 cm. Application was of tank mixed formulation by foliar applied broadcast treatment. Compound (a) above was tank mixed as is. Compound (z) above was tank mixed in the form of a 0.5 kg/l s.c. commercially available under the trademark […]®. Aquagene is a commercially available surfactant, (Universal Coop Incorporated, Minneapolis, MN).

The subject of assay [2] is velvetleaf. As to the kind of experiment: Field trial, post-emergent tank mix in field corn. The assay is classed as in vivo, Abutilon theophrasti. The conditions noted are these: post-emergent 35 days after seeding, weeds 41 to 89 cm, foliar broadcast tank mix, (z) 0.275 kg/ha, (a) 0.011 kg/ha, Aquagene 0.9 l/ha where named. The method, then:
as §1

In assay [3] the test system is velvetleaf. As to the kind of experiment: Greenhouse test, post-emergence. The conditions noted are these: treatment 10 days post-emergence, evaluation 18 days after treatment, (e) 0.01 kg/ha, (z) 0.02 kg/ha, 3 repetitions. The assay is classed as in vivo, Abutilon theophrasti. The method, then: (§2) A greenhouse test was conducted against velvetleaf, pigweed, morningglory and cocklebur. Treatment was at 10 days post-emergence and evaluation at 18 days after treatment. Compound (e) was formulated as technical a.i. in a mixture of equal parts acetone and water with 1/2% surfactant. Compound (z) was used in the commercially available form […]® herbicide (=480g/L a.i. equivalent) in water with 1/2% surfactant. The tank mixes were applied in a linear spray chamber with 3 repetitions per concentration.

A further assay has as its system morningglory. As to the kind of experiment: Greenhouse test, post-emergence. Type of assay: in vivo, Ipomoea sp. The conditions noted are these: treatment 10 days post-emergence, evaluation 18 days after treatment, (e) 0.01 kg/ha, (z) 0.02 kg/ha, 3 repetitions. The method, then: as §2
The test system of the next assay is cocklebur. As to the kind of experiment: Greenhouse test, post-emergence. Type of assay: in vivo, Xanthium strumarium. The conditions noted are these: treatment 10 days post-emergence, evaluation 18 days after treatment, (e) 0.01 kg/ha, (z) 0.02 kg/ha, 3 repetitions. The method, then: as §2
The subject of assay [4] is pigweed. The assay is described as follows: Greenhouse test, post-emergence. Type of assay: in vivo, Amaranthus sp. The settings on record: treatment 10 days post-emergence, evaluation 18 days after treatment, (e) 0.01 kg/ha, (z) 0.02 kg/ha, 3 repetitions. The method, then: as §2

The text below walks through data of EP0646315B1, “Novel compositions containing an auxin transport inhibitor and another herbicide” (Novartis AG, priority 1993, dated 1995).

“2-acetylnicotinic acid 4-(3,5-difluorophenyl)semicarbazone 2-(2-hydroxyethoxy)ethyl-ammonium salt [Compound (a)]”: in the assay with pigweed [1], the “% of control Pigweed” value came out at 18%. Further, the “% of control Velvetleaf” value in the assay with velvetleaf [2] was determined as 13%.
Consider `COc1c(Cl)ccc(Cl)c1C(=O)O` [Compound (z), dicamba], for which, in the assay with velvetleaf [3], the “% control Velvetleaf” value was 35%. For the same compound, the activity at 275 g/ha with pigweed [1] (Amaranthus retroflexus, 840 h, read-out: % of control Pigweed) turned out to be 30%; in the assay on velvetleaf [2] (Abutilon theophrasti, 840 h, read-out: % of control Velvetleaf), 18%. Besides, the “% control Morningglory” value with morningglory is given as 35%. In the assay with cocklebur, the “% control Cocklebur” value is on record as 75%. Further, the “% control Pigweed” value with pigweed [4] is reported as 35%.
